Patent US20230124862A1, “BISMUTH THIOL COMPOUNDS AND COMPOSITIONS AND METHODS OF TREATING MICROBIAL CO-INFECTIONS” (Microbion Corporation, priority 2020, published 2023)
In brackets after ≈: the same amount, converted by molar mass. Read-outs that look alike come from different tables or passages of the source.

Key:
[1] = test system: Gram-positive organisms (S. aureus, S. pneumoniae); test: Broth microdilution MIC with pulmonary surfactant (Survanta); format: cell-based, Staphylococcus aureus, Streptococcus pneumoniae
E. coli ATCC 25922 = test: Broth microdilution MIC (Example 16)
[2] = test system: cell wall synthesis in E. coli ATCC 25922; conditions: 8X the MIC
[3] = test system: lipid synthesis in E. coli ATCC 25922; test: Macromolecular synthesis assay: lipid synthesis ([3H] glycerol); format: cell-based, Escherichia coli; conditions: control drug, concentration not given
Procedure: Chloroform (125 μL) was then added to each reaction and vortexed, followed by the addition of 125 μl dH2O and vortexing. Reactions were centrifuged at 13,000 rpm in a microfuge for 10 min, and then 150 μl of the organic phase was transferred to a scintillation vial and allowed to dry in a fume hood for at least 1 hr.

[4] = test system: RNA synthesis in E. coli MMX 121 (K12 tolC mutant); format: cell-based, Escherichia coli; conditions: 8X the MIC
[5] = test system: RNA synthesis in E. coli ATCC 25922; format: cell-based, Escherichia coli; conditions: 8X the MIC
[6] = test system: protein synthesis in E. coli ATCC 25922; conditions: 8X the MIC
[7] = Escherichia coli, ATCC25922, E. coli ATCC 25922, inoculum 1
[8] = Escherichia coli, ATCC25922, E. coli ATCC 25922, inoculum 2

**Q.** Which MIC ([1]; S. pneumoniae ATCC 49619, 0 percent Survanta) does the source give for C[C@@H](O)[C@H]1C(=O)N2C(C(=O)O)=C(SCCN=CN)C[C@H]12 [imipenem] here?
**A.** ≤ 0.015 µg/mL

**Q.** And the MIC ([1]; S. pneumoniae ATCC 49619, 1 percent Survanta)?
**A.** 0.03 µg/mL (≈ 0.1 µM)

**Q.** And the MIC ([1]; S. pneumoniae ATCC 49619, 2.5 percent Survanta)?
**A.** 0.03 µg/mL (≈ 0.1 µM)

**Q.** And the MIC ([1]; S. pneumoniae MMX 3162, 0 percent Survanta)?
**A.** 0.25 µg/mL (≈ 0.835 µM)

**Q.** What about the MIC ([1]; S. pneumoniae MMX 3162, 1 percent Survanta) of the same compound?
**A.** 0.25 µg/mL (≈ 0.835 µM)

**Q.** And the MIC ([1]; S. pneumoniae MMX 3162, 2.5 percent Survanta)?
**A.** 0.25 µg/mL (≈ 0.835 µM)

**Q.** And the MIC ([1]; S. pneumoniae MMX 3162, 5 percent Survanta)?
**A.** 0.25 µg/mL (≈ 0.835 µM)

**Q.** And the MIC ([1]; Staphylococcus aureus, ATCC29213, S. aureus ATCC 29213, 0 percent Survanta)?
**A.** ≤ 0.015 µg/mL

**Q.** And the MIC ([1]; Staphylococcus aureus, ATCC29213, S. aureus ATCC 29213, 1 percent Survanta)?
**A.** ≤ 0.015 µg/mL

**Q.** What about the MIC ([1]; Staphylococcus aureus, ATCC29213, S. aureus ATCC 29213, 2.5 percent Survanta) of the same compound?
**A.** ≤ 0.015 µg/mL

**Q.** And the MIC ([1]; Staphylococcus aureus, ATCC29213, S. aureus ATCC 29213, 5 percent Survanta)?
**A.** ≤ 0.015 µg/mL

**Q.** What about the MIC ([1]; Staphylococcus aureus, ATCC29213, S. aureus ATCC 29213, 10 percent Survanta) of the same compound?
**A.** ≤ 0.015 µg/mL

**Q.** And the MIC ([1]; Staphylococcus aureus, ATCC43300, S. aureus ATCC 43300, 0 percent Survanta)?
**A.** 0.5 µg/mL (≈ 1.67 µM)

**Q.** And the MIC (E. coli ATCC 25922; Escherichia coli, ATCC25922)?
**A.** 0.12 µg/mL (≈ 0.401 µM)

**Q.** What about the MIC (E. coli ATCC 25922; [7]) of the same compound?
**A.** 0.12 µg/mL (≈ 0.401 µM)

**Q.** What about the MIC (E. coli ATCC 25922; [8]) of the same compound?
**A.** 0.12 µg/mL (≈ 0.401 µM)

**Q.** What about the “inhibition of cell wall synthesis” value [2] of the same compound?
**A.** 78.8%

**Q.** With Oc1cc(Cl)ccc1Oc1ccc(Cl)cc1Cl [irgasan] as the compound, how does the MIC (E. coli ATCC 25922; E. coli ATCC 25922, inoculum 1) read?
**A.** 0.12 µg/mL (≈ 0.414 µM)

**Q.** And the MIC (E. coli ATCC 25922; E. coli ATCC 25922, inoculum 2)?
**A.** 0.12 µg/mL (≈ 0.414 µM)

**Q.** And the MIC (E. coli ATCC 25922; E. coli ATCC 25922, inoculum 3)?
**A.** 0.12 µg/mL (≈ 0.414 µM)

**Q.** What about the “inhibition of lipid synthesis” value [3] of the same compound?
**A.** 63.1%

**Q.** For CO[C@H]1/C=C/O[C@@]2(C)Oc3c(C)c(O)c4c(O)c(c(/C=N/N5CCN(C)CC5)c(O)c4c3C2=O)NC(=O)/C(C)=C\C=C\[C@H](C)[C@H](O)[C@@H](C)[C@@H](O)[C@@H](C)[C@H](OC(C)=O)[C@@H]1C [rifampicin], which “inhibition of RNA synthesis” value [4] is on record?
**A.** 91.9%

**Q.** And the “inhibition of RNA synthesis” value ([5]; initial assay)?
**A.** 88.5%

**Q.** What about the “inhibition of RNA synthesis” value ([5]; repeat assay) of the same compound?
**A.** 89.4%

**Q.** What about the MIC (E. coli ATCC 25922; Escherichia coli, ATCC25922) of the same compound?
**A.** 8 µg/mL (≈ 9.72 µM)

**Q.** And the MIC (E. coli ATCC 25922; [7])?
**A.** 8 µg/mL (≈ 9.72 µM)

**Q.** And the MIC (E. coli ATCC 25922; [8])?
**A.** 8 µg/mL (≈ 9.72 µM)

**Q.** What does the source list for CN(C)[C@@H]1C(O)=C(C(N)=O)C(=O)[C@@]2(O)C(O)=C3C(=O)c4c(O)cccc4[C@@](C)(O)[C@H]3C[C@@H]12 [tetracycline]?
**A.** inhibition of protein synthesis [6]: 93.8%; MIC (E. coli ATCC 25922; Escherichia coli, ATCC25922): 1 µg/mL (≈ 2.25 µM); MIC (E. coli ATCC 25922; [7]): 1 µg/mL (≈ 2.25 µM); MIC (E. coli ATCC 25922; [8]): 1 µg/mL (≈ 2.25 µM)
